What all share (test): DTP human tumour cell line panel, 48 h
Assay [1] relates to CAKI-1.
Assay [2] relates to MCF7.
Assay [3] deals with SF-295.
The test system of assay [4] is RXF 393.
The subject of assay [5] is OVCAR-3.
In assay [6] the test system is NCI-H226.
The test system of assay [7] is SNB-75.
In assay [8] the test system is M14.
The subject of assay [9] is SF-539.
For assay [10], the system named is 786-0.
For assay [11], the system named is SW-620.
In assay [12] the test system is NCI-H522.
Assay [13] has as its system SK-OV-3.
The subject of assay [14] is OVCAR-5.
Assay [15] has as its system SNB-19.
The test system of assay [16] is U-251.
For assay [17], the system named is CCRF-CEM.
For assay [18], the system named is IGROV-1.
The test system of assay [19] is T47D.
Assay [20] has as its system UACC-257.

One may read the GI50 as the concentration giving 50% growth inhibition.

SMILES strings stand for the structures.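 Exposure lasted 48 hours, with cells grown in 96-well plates and compounds tested at five concentrations. Here, GI50 denotes the concentration required for 50% inhibition of growth.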 Active and inactive are the calls of the source. Rule as the data show it: active = GI50 up to about 1.1 µM and inactive = higher.

Regarding `Oc1ncc(Cl)c(O)n1`, the GI50 in assay [1], in assay [2], in assay [3], in [4], in assay [5] and in assay [6] was > 100 µM (inactive) each time. For the same molecule, the GI50 in assay [7], in assay [8], in [9], in assay [10], in [11] and in assay [12] was > 100 µM (inactive) each time. For the same molecule, the GI50 in assay [13], in assay [14], in assay [15], in assay [16], in assay [17] and in assay [18] was > 100 µM (inactive) throughout. In addition, the GI50 in assay [19] and in assay [20] was > 100 µM (inactive) each time.
On to `COc1ccc(OC)c(C(Cc2ccnc3ccccc23)Cc2ccnc3ccccc23)c1`, for which the GI50 in [1] is > 10 µM (inactive); in assay [2] it was 4.93 µM (inactive); in assay [3], 6.71 µM (inactive); in [4], > 10 µM (inactive); in assay [5], > 10 µM (inactive); in [6] it was 9.57 µM (inactive). Moreover, the GI50 in assay [7] was 6.11 µM (inactive); in assay [8], > 10 µM (inactive); in assay [9], > 10 µM (inactive); in [10], > 10 µM (inactive); in [11], > 10 µM (inactive); in [12], 6.32 µM (inactive). Besides, the GI50 is > 10 µM (inactive) in [13]; > 10 µM (inactive) in assay [14]; > 10 µM (inactive) in assay [15]; > 10 µM (inactive) in assay [16]; 8.57 µM (inactive) in [17]; > 10 µM (inactive) in assay [18]. In addition, the GI50 in assay [19] was 6.25 µM (inactive); in assay [20], > 10 µM (inactive).
Consider `C[S+]([O-])c1ncc2c(n1)-c1ccccc1OC2` (stereo not given), for which the GI50 is 83.8 µM (inactive) in assay [1]; 38.5 µM (inactive) in assay [2]; > 100 µM (inactive) in [3]; > 100 µM (inactive) in [4]; 56.2 µM (inactive) in assay [5]; > 100 µM (inactive) in assay [6]. Moreover, the GI50 in [7], in assay [8], in [9], in assay [10], in [11] and in [12] was > 100 µM (inactive) each time. Also, the GI50 in assay [13] is > 100 µM (inactive); in assay [14], > 100 µM (inactive); in assay [15], > 100 µM (inactive); in assay [16] it was > 100 µM (inactive); in assay [17], > 100 µM (inactive); in [18], 49.1 µM (inactive). In addition, the GI50 in assay [19] is 35.2 µM (inactive); in assay [20], 40.3 µM (inactive).
Turning to `CN(C)c1ccc(/C=C(/NC(=O)c2ccccc2)C(=O)Nc2ccccc2C(=O)O)cc1`, the GI50 in assay [1], in [2], in assay [3], in [4], in [5] and in [6] was > 100 µM (inactive) throughout. The GI50 in assay [7], in [8], in [9], in [10], in assay [11] and in [12] was > 100 µM (inactive) each time. For the same molecule, the GI50 in [13], in assay [14], in [15], in assay [16], in assay [17] and in [18] was > 100 µM (inactive) throughout. The GI50 in assay [19] and in [20] was > 100 µM (inactive) throughout.
On to `CC(C)=CCC/C(C)=C/CCC(C(=O)COCc1ccccc1)P1(=O)OC(C)(C)CN1C(C)(C)C` (stereo not given), for which the GI50 is > 100 µM (inactive) in assay [1]; 33.8 µM (inactive) in assay [2]; 46.6 µM (inactive) in assay [3]; 87.5 µM (inactive) in assay [4]; 37.6 µM (inactive) in assay [5]; 30.6 µM (inactive) in assay [6]. The GI50 in [7] was 28.9 µM (inactive); in assay [8], 93.5 µM (inactive); in assay [9] it was > 100 µM (inactive); in assay [10] it was 48.3 µM (inactive); in assay [11], > 100 µM (inactive); in [12], 32.6 µM (inactive). For the same molecule, the GI50 is > 100 µM (inactive) in assay [13]; > 100 µM (inactive) in [14]; > 100 µM (inactive) in assay [15]; > 100 µM (inactive) in [16]; 30.6 µM (inactive) in assay [17]; 91.4 µM (inactive) in [18]. Also, the GI50 was 31.8 µM (inactive) in [19] and 84.1 µM (inactive) in assay [20].
In the case of `COC(=O)c1ccccc1CC(Cc1ccc2c(c1)CCC2)C(=O)OC` (stereo not given), the GI50 in [1] is > 100 µM (inactive); in assay [2] it was > 100 µM (inactive); in assay [3], > 100 µM (inactive); in assay [4] it was > 100 µM (inactive); in [5], 70 µM (inactive); in [6] it was 57.5 µM (inactive). Besides, the GI50 in assay [7] is 98.4 µM (inactive); in [8] it was > 100 µM (inactive); in [9], > 100 µM (inactive); in [10] it was > 100 µM (inactive); in [11], > 100 µM (inactive); in [12] it was 66.1 µM (inactive). The GI50 in assay [13] was > 100 µM (inactive); in assay [14], > 100 µM (inactive); in assay [15] it was > 100 µM (inactive); in [16], > 100 µM (inactive); in [17], 47.3 µM (inactive); in assay [18] it was > 100 µM (inactive). Moreover, the GI50 in assay [19] was > 100 µM (inactive); in assay [20] it was 34.6 µM (inactive).
For `S=c1sc2nc(Cl)nc(Cl)c2s1`, the GI50 is 7.52 µM (inactive) in assay [1]; 8.49 µM (inactive) in assay [2]; 16.7 µM (inactive) in [3]; 12 µM (inactive) in [4]; 10.3 µM (inactive) in assay [5]; 17.5 µM (inactive) in assay [6]. Moreover, the GI50 is 17.3 µM (inactive) in assay [7]; 4.16 µM (inactive) in assay [8]; 20.6 µM (inactive) in [9]; 6.21 µM (inactive) in assay [10]; 6.85 µM (inactive) in [11]; 6.84 µM (inactive) in assay [12]. Moreover, the GI50 is 17.7 µM (inactive) in [13]; 15.7 µM (inactive) in assay [14]; 17.9 µM (inactive) in assay [15]; 7.8 µM (inactive) in assay [16]; 0.598 µM (active) in assay [17]; 13.8 µM (inactive) in [18]. The GI50 in [19] is 7.06 µM (inactive); in assay [20], 15.3 µM (inactive).
On to `C#CCSc1cnc2ccccc2c1Sc1c[nH]c2ccccc2c1=O`, for which the GI50 in [1] was 23.7 µM (inactive); in assay [2] it was 6.82 µM (inactive); in assay [3], 24.1 µM (inactive); in assay [4] it was 13.6 µM (inactive); in assay [5], 23.4 µM (inactive); in assay [6] it was 21 µM (inactive). The GI50 in assay [7] was 15.9 µM (inactive); in assay [8], 17 µM (inactive); in [9] it was 28.6 µM (inactive); in assay [10], 12.4 µM (inactive); in [11] it was 24.8 µM (inactive); in assay [12], 6.58 µM (inactive). Further, the GI50 in assay [13] is 30.3 µM (inactive); in assay [14], 32.7 µM (inactive); in assay [15], 16.1 µM (inactive); in assay [16] it was 15 µM (inactive); in assay [17], > 100 µM (inactive); in [18], 3.29 µM (inactive). Moreover, the GI50 was 10.9 µM (inactive) in [19] and 17.6 µM (inactive) in assay [20].
Turning to `COC(=O)CNC(=O)CCC(C)[C@H]1CCC2C3C(C[C@H](OC(C)=O)[C@@]21C)[C@@]1(C)CCC2(C[C@H]1C[C@H]3OC(C)=O)OOC1(CCCCC1)OO2` (stereo not given in full), the GI50 in [1] is 2.02 µM (inactive); in assay [2], 3.26 µM (inactive); in [3], 6.08 µM (inactive); in assay [4] it was 1.99 µM (inactive); in assay [5], 2.04 µM (inactive); in [6] it was 2.1 µM (inactive). Moreover, the GI50 was 2.23 µM (inactive) in assay [7]; 3.91 µM (inactive) in assay [8]; 1.95 µM (inactive) in assay [9]; 2.04 µM (inactive) in [10]; 2.24 µM (inactive) in assay [11]; 1.48 µM (inactive) in assay [12]. In addition, the GI50 in [13] was 12.4 µM (inactive); in [14] it was 2.6 µM (inactive); in [15], 4.63 µM (inactive); in [16], 1.76 µM (inactive); in assay [17], 2.1 µM (inactive); in assay [18], 1.4 µM (inactive). Moreover, the GI50 is 2.58 µM (inactive) in [19] and 6.31 µM (inactive) in assay [20].

Values taken from ChEMBL document CHEMBL1201862, “PubChem BioAssay data set” (2004).
